One may read the melting point as the temperature of the solid-liquid transition.

Where only a bound is given, the exact number is not on record here.

Here are results for 89 compounds from a melting point compilation (Tetko et al.; mined from patent text by program, amines drawn as free bases though some values may be those of a salt).

The compound `CCCOC(C)c1ccc2[nH]c3cnc(C(=O)OCC)c(COC)c3c2c1` (centres undefined) came in with a melting point of 189 to 190 °C.

In turn, `Nc1ccc(Cc2n[nH]c(=O)o2)cc1` came in with a melting point of 267 to 268 °C. In turn, `O=C1Nc2ccccc2C1c1nc(Cl)nc2nn(C3CCCC3)cc12` (centres undefined) showed a melting point of 270 to 273 °C. As for `CCC(=O)N(Cc1ccc(OC)cc1)c1cc(F)cc(-c2nnn[nH]2)c1`, the figure is 158 to 160 °C; as for `CCCOc1nc(N)nc2c1ncn2C1C=CC(CO)C1` (centres undefined), 97 to 99 °C; as for `NC(=NCC(F)(F)F)Nc1nc(CO)ns1`, 123 to 125 °C. Regarding `CCOC(=O)Cc1ccc(CC2(CNS(=O)(=O)c3ccc(Cl)cc3)CCCC2)cc1`, the melting point lay within 117 to 119 °C. Take `Cn1nc(-c2ccc(F)cc2)c(-c2ccncc2)c1C=CCc1ccccc1`: the melting point was in the range of 136 to 137 °C. In turn, `CCc1nc2c(N)nc3cccnc3c2n1CC1(O)CCOC1` (centres undefined) displayed a melting point of 234 to 236 °C. As for `Cc1ccc(CN2CCC3(CC2)CSC2=C(O3)c3ccccc3C(=O)C2=O)cc1`, the figure is 156 to 158 °C; as for `CC(=O)N1CCSc2cccc(Cl)c2C1`, 79 to 81 °C. The value for `CC1(C)CC(NC(=O)CCC(C)(c2ccc(O)c(C(C)(C)C)c2)c2ccc(O)c(C(C)(C)C)c2)CC(C)(C)N1` was 110 °C; that for `CC(=O)c1c[nH]cc1-c1cccc(Cl)c1Cl` was 192 to 194 °C; that for `COc1ccccc1N1CCN(CCn2c(=O)c3sccc3n(CCC(=O)O)c2=O)CC1` was 215 to 216 °C. As for `CC(=O)NNC(=O)c1ccccc1`, the figure is 172 to 174 °C. Consider `Cc1nnc2n1-c1ccc(C#CCN3C(=O)CN(C)C(=O)c4ccccc43)cc1C(c1ccccc1F)=NC2`, for which the melting point lay within 179 to 182 °C.

Regarding `CN[C@@H]1COc2cc(Cl)cc(-c3ccccc3C)c2O1`, the melting point was greater than 245 °C. The value for `N=C(N)NCCCOc1ccc2c(c1)N(Cc1ccccc1)C(=O)C(CC(=O)O)C2` (centres undefined) was 172 to 173 °C. `Cc1nc2ccccc2n(-c2ccc(CC(=O)O)cc2)c1=O` had a melting point of 179 to 182 °C. As for `Nc1ncc(-c2cccc3ccccc23)c(N)n1`, the figure is 171 to 173 °C.

The compound `Nc1nc2c(nc(C#Cc3ccc(C(F)(F)F)cc3)n2C2OC(CO)C(O)C2O)c(=O)[nH]1` (centres undefined) came in with a melting point greater than 240 °C. As for `CCOC(=O)c1cn(CC)c2nc(OC)ncc2c1=O`, the figure is 149 °C. As for `CC(=O)NCCc1ccc(CN2CCN(c3ccccc3)CC2)cc1`, the figure is 117 to 118 °C. As for `COc1cc(-c2cc(=O)c3ccc(OCC(O)CNC(C)C)cc3o2)cc(OC)c1OC` (centres undefined), the figure is 106 to 107 °C. In the case of `CCCCC(CC)COc1cc(CO)c(-n2c3ccccc3c3ccccc32)cc1CO` (centres undefined), the melting point came out at 128 °C. As for `O=C1Nc2ccc(C(F)(C(F)(F)F)C(F)(F)F)cc2CN1NCc1cccnc1`, the figure is 159 to 161 °C; as for `CCOc1cc2c(Nc3cc(OC)c(Cl)cc3Cl)c(C#N)cnc2cc1C#CCCO`, 220 to 222 °C; as for `CC1Nc2ccc(NC(=O)c3ccc(-c4ccccc4)cc3)cc2N1C` (centres undefined), 270 °C. The value for `COc1cc(Br)cc2c1OCCC2` was 67 °C; that for `COC(=O)Cn1c(=O)sc2cc(Br)c(Cl)cc21` was 209 to 210 °C. In the case of `CC(O)(C(=O)Nc1cc(S(=O)(=O)c2ccccc2)ccc1Cl)C(F)(F)F` (centres undefined), the melting point lay within 79 to 80 °C. The compound `Cc1nnc2ccc(-c3cccc(NC=O)c3)nn12` displayed a melting point of 265 to 268 °C. As for `NC(=O)[C@H](Cc1cccnc1)NC(=O)OCc1ccccc1`, the figure is 153 °C.

As to `CCCc1c(O)ccc2ccc(OCC(=O)OC)cc12`, the melting point was in the range of 122 to 124 °C.

`CCc1nc2c(cnn2CC)c(NC2CCOCC2)c1CNC(=O)c1cccc(C(=O)NCc2ccc(Cl)c(-c3cccc(CN4CCCN(C)CC4)c3)c2)c1` gave a melting point of 105 to 107 °C. The value for `O=C(Cc1ccc(CN2CCC(=O)C(C(c3ccccc3)c3ccccc3)C2)cc1)OCC(=O)c1ccccc1` (centres undefined) was 99 to 110 °C; that for `COC1(c2cc(F)cc(Sc3ccc(CONC(N)=O)cc3)c2)CCOCC1` was 104 to 105 °C.

For the compound `COC(=O)c1cccc2c1C(Cc1ccnc(F)c1)(Cc1ccnc(F)c1)c1ccccc1-2`, the melting point lay within 126 to 127 °C. The value for `O=C(O)CCNc1ccc(CNC(=O)C2Cc3ccccc3N2S(=O)(=O)c2ccc(-c3cccc(C(F)(F)F)c3)cc2)cc1` (centres undefined) was 82 °C; that for `COc1ccc(NS(=O)(=O)c2cc(S(=O)(=O)Nc3ccc(OC)cc3C)c3cc(O)ccc3c2)c(C)c1` was 211 to 213 °C; that for `CC(C)C[C@H](NC(=O)OC(C)(C)C)[C@@H]1CCC(=O)O1` was 75 to 77 °C.

Consider `CCCCC(C)C(O)CCc1cc(O)c(O)cc1Br` (centres undefined), for which the melting point is 68 to 71 °C. As for `NC1(NC(=O)C(F)(F)F)CN(c2c(F)cc3c(=O)c(C(=O)O)cn(-c4ccc(F)cc4F)c3c2F)C1`, the figure is 190 to 196 °C.

In the case of `CCN(CC)C(=O)c1ccc(OCCCl)cc1`, the melting point fell in the range of 80 to 81 °C. The value for `CC(=O)N1CCn2c3c(c4cccc(c42)C1)CCCCCC3` was 41 to 44 °C; that for `O=[N+]([O-])c1ccc2c(c1)C(c1ccccc1)=NCC(OP(=O)(N1CCOCC1)N1CCOCC1)=N2` was 208 to 209 °C. As for `COC(=O)c1cc(NC(=O)OC(C)(C)C)c(NC(=O)CC(=O)c2cccc(C#N)c2)cc1I`, the figure is 162 to 166 °C; as for `CC(C)(C)c1ccccc1N1CCN(C(=O)c2ncoc2-c2ccccc2)CC1`, 146 to 148 °C.

On to `CCOC(=O)c1cn(C)c2c(=O)oc3ccccc3c2c1=O`, for which the melting point fell in the range of 203 to 208 °C.

`Cc1oncc1C(=O)N1CCN(c2ccc(NC(=O)c3cnn(-c4ccc(F)cc4)c3C)cc2C#N)CC1` came in with a melting point of 208 °C. The value for `Oc1cncc2ccsc12` was 180 °C. The value for `COc1cccc(COc2ccc(N)nn2)c1OC` was 103 to 106 °C. `Cc1nn(-c2ccccn2)c2[nH]c3c(c(=O)c12)CCCC3` showed a melting point of 172 to 173 °C. As for `COC(=O)c1ccc(OC)c(OC(C)(C)C)c1`, the figure is 98 to 100 °C. The value for `CC/C(=C\c1cccc(OCc2nc(-c3ccc(C(F)(F)F)cc3)oc2C)c1)Cn1oc(=O)[nH]c1=O` was 124 to 125 °C; that for `O=C(O)Cc1nn(Cc2nc3cccc(Cl)c3s2)c(=O)c2ccccc12` was 168 °C; that for `CN1CCC(N(C)c2n[nH]c(-c3ccc(Cl)cc3)c2-c2ccncc2)CC1` was 260 to 261 °C.

Compound `COCC(C)Oc1cc(Oc2ccc(S(C)(=O)=O)cc2)cc2cc(C3=NCC(C(OC)OC)S3)[nH]c12` (centres undefined) showed a melting point of 109 to 112 °C. As to `CNc1nc(C)c(-c2nc3ccccc3c(=O)n2-c2ccccc2Cl)s1`, the melting point is 214 to 215 °C. As for `CCCCCC(C)C(C)c1cc(O)c2c(c1)OC(C)(C)C1=C2CN(CC(=O)Nc2ccccc2)CC1` (centres undefined), the figure is 125 to 127 °C; as for `N#Cc1cnn(-c2ccc(F)cc2F)c1Cl`, 120 to 122 °C; as for `Nc1nc(C(F)(F)F)cc(=O)n1N`, 215 to 218 °C. As for `Cc1scc2c1C(=O)Nc1ccccc1N2C(=O)Cl`, the melting point is 235 to 236 °C.

`CN(C[C@H](O)c1cccc(OCC(=O)O)c1)c1cnc(-c2ccccc2)c(-c2ccccc2)n1` yielded a melting point of 158 to 159 °C.

In turn, `O=c1cc(-c2ccccc2)c2c(O)cc(O)cc2o1` registered a melting point of 179 to 182 °C. Take `O=C1NC(=O)C(Nc2ccc(Br)c3ccccc23)S1` (centres undefined): the melting point was 199 to 200 °C. In turn, `NCCCNc1n[nH]c(=O)c2ccccc12` yielded a melting point of 147 to 148 °C.

The compound `N=C(N)c1ccncc1` registered a melting point of 136 to 140 °C. The value for `CCOc1ccc(C=C(CS)C(=O)NCCC(=O)O)cc1` was 148 °C; that for `O=C(NCCCO)c1cc(Br)c(Br)[nH]1` was 160 to 162 °C.

`CCc1cc2c(cc1OCc1ccccc1)CCC1C2CCC2(C)C(=CCO)CCC12` (centres undefined): the melting point lay in the range of 61 to 62 °C. Compound `O=C1N(Cc2cnccc2C(F)(F)F)c2ccccc2C12COc1cc3c(cc12)OCCO3` (centres undefined) had a melting point of 131 to 132 °C. Regarding `COc1ccc(-c2cc(-c3ccccc3)[nH]c2C(=O)NCc2ccc(C(=O)NO)cc2)cc1OC`, the melting point lay within 134 to 136 °C. The value for `CC(C)NC(=O)c1cc(-n2c(=O)cc(C(F)(F)F)n(C)c2=O)c(F)cc1Cl` was 146 to 149 °C; that for `COC(=O)C1=C(C)NC(C)=C(c2nc(CCl)ns2)C1c1cccc([N+](=O)[O-])c1` (centres undefined) was 205 to 206 °C. The value for `c1coc(CN2CC3(COc4cc5c(cc43)OCO5)c3ccccc32)c1` (centres undefined) was 110 to 112 °C; that for `CC1OCCn2c1nc(C(=O)O)c(OCc1ccccc1)c2=O` (centres undefined) was 167 to 168 °C; that for `CC(C)(C)C1=C(O)C(=O)c2ccccc2C1=O` was 89 °C. The value for `Cc1cccc(-c2cc(C(F)(F)F)cc3c2OC(CN)C3)c1` (centres undefined) was greater than 250 °C.

`O=C(O)C(=O)c1ccco1` registered a melting point of 81 to 91 °C.

As for `CN(C)S(=O)(=O)C(Br)(Br)Sc1ccccc1`, the melting point lay within 128 to 129 °C. Take `Cc1nnc2n1-c1ccc(C#CCC3C(=O)Nc4ccccc43)cc1C(c1ccccc1Cl)=NC2` (centres undefined): the melting point fell in the range of 141 to 143 °C. The value for `CNC(=O)N(OC)c1ccccc1COc1ccc2c(c1)OCC2=NOC` was 109 to 112 °C.

Turning to `O=c1c2ccccc2cnn1Cc1ccccc1`, the melting point is 104 to 105 °C. `CC[C@H](COC)n1cc(Br)nc(N2CCc3cc(OC)cc(C)c32)c1=O` had a melting point of 116 to 118 °C. Compound `N#Cc1ccc(NC(=O)OCc2cccnc2)cc1` returned a melting point of 205 to 207 °C. As for `CC(O)CCc1ccc2c(c1)Cc1ccccc1-2` (centres undefined), the figure is 120 to 121 °C; as for `CC1CCN(c2ccc(N)cc2C(=O)c2ccc(Cl)cc2)CC1`, 89 °C. `CC(=O)c1ccc2c(c1)ncn2-c1cccc(-c2cccnc2)c1` gave a melting point of 195 to 197 °C.
